Data published in ChEMBL document CHEMBL1157666, “Design, synthesis and biological evaluation of thiazolidinone derivatives as potential EGFR and HER-2 kinase inhibitors” (Bioorg Med Chem, 2010).

Key:
[1] = biological target: T1, Receptor tyrosine-protein kinase erbB-2 (Homo sapiens, UniProt P04626); assay: biochemical
Description: (§1) Inhibition of human cloned HER2 autophosphorylation expressed in baculovirus-infected Sf9 cells by solid-phase ELISA

[2] = biological target: Epidermal growth factor receptor (Homo sapiens, UniProt P00533); assay: biochemical
Description: Inhibition of cloned EGFR autophosphorylation expressed in baculovirus-infected Sf9 cells by solid-phase ELISA

MCF7 = assay: cells; settings: Homo sapiens, MCF7, 48 h
[3] = biological target: T1, Receptor tyrosine-protein kinase erbB-2
Description: as §1

Epidermal growth factor receptor, sequence (P00533 whole entry): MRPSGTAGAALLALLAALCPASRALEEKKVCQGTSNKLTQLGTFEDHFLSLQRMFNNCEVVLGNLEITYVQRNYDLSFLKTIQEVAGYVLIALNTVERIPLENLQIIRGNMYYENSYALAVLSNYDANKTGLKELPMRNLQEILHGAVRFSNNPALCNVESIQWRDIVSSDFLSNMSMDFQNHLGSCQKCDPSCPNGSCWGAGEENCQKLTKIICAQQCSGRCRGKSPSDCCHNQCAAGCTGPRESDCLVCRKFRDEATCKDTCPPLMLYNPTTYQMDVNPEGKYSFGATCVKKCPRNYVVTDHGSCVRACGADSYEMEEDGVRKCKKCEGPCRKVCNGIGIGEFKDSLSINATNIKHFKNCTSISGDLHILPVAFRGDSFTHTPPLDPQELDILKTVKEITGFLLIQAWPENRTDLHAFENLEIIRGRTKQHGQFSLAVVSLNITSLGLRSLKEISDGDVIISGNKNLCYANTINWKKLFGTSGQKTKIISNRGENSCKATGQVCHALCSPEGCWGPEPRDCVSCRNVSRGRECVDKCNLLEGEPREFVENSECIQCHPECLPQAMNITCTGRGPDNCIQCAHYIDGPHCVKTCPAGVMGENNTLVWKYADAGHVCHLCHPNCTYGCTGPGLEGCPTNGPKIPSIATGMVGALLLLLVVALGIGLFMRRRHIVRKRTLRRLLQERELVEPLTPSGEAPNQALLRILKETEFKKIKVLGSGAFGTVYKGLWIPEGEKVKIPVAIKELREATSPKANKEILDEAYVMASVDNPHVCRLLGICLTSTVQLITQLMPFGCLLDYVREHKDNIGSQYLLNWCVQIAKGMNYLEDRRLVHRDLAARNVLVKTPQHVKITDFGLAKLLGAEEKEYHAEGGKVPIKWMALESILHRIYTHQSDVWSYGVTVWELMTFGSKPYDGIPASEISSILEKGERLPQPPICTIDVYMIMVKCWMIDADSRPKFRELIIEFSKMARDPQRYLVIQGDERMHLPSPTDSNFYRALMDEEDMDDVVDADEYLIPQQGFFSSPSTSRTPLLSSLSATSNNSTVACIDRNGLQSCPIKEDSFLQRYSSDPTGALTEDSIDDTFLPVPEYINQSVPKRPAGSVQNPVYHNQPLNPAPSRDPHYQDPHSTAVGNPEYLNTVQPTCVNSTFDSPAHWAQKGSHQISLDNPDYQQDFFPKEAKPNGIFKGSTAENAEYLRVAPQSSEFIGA
T1 sequence (P04626 whole entry): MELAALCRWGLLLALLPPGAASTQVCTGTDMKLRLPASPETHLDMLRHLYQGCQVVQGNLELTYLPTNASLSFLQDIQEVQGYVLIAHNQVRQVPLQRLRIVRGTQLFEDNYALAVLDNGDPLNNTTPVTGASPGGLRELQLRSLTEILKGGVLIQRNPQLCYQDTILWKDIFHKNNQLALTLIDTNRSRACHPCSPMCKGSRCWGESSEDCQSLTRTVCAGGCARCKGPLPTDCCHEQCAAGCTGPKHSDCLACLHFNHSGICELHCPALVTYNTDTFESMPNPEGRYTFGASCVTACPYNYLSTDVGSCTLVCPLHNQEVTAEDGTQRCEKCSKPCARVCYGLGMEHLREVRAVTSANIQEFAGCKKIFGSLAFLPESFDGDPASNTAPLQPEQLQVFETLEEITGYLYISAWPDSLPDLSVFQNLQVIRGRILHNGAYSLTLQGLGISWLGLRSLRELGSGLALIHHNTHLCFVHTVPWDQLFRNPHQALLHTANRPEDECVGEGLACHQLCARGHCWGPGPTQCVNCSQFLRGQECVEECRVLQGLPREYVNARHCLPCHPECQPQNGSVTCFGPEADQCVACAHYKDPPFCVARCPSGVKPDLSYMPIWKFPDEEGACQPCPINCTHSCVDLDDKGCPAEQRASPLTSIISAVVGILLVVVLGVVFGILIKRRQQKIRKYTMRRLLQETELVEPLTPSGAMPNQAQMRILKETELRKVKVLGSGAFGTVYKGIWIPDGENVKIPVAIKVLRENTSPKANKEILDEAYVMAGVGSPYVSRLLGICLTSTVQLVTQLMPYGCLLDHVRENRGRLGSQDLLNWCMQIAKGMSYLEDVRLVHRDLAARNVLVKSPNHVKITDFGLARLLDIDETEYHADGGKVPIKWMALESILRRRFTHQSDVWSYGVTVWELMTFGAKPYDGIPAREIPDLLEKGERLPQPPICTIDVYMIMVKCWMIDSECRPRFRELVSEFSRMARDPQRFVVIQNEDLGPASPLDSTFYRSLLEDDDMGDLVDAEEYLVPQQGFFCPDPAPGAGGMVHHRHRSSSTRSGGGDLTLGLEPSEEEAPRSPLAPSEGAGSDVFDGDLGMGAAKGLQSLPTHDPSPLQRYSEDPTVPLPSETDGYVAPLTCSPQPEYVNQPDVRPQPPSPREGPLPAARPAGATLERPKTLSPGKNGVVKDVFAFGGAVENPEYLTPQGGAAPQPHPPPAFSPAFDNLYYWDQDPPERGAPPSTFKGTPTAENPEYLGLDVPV

Row | Compound | IC50 [1] [µM] | IC50 [2] [µM] | IC50 (MCF7) [µM] | IC50 [3] [µM]
1 | COc1cccc(/C=N/NC2=NC(=O)CS2)c1 | 45.5 | 31.2 | 9.73 | –
2 | O=C1CSC(N/N=C/c2ccc([N+](=O)[O-])cc2)=N1 | 8.46 | 6.82 | 2.77 | –
3 | Cc1ccc(/C=N/NC2=NC(=O)CS2)cc1 | 5.83 | – | 2.05 | –
4 | O=C1CSC(NN=C2CCC2)=N1 | > 50 | > 50 | 46.3 | –
5 | O=C1CSC(NN=C2CCCCCC2)=N1 | 47 | 36 | 27.6 | –
6 | O=C1CSC(N/N=C/c2ccc(Cl)cc2)=N1 | 2.75 | 1.94 | 1.82 | –
7 | O=C1CSC(NN=C2CCCC2)=N1 | > 50 | > 50 | 38.5 | –
8 | O=C1CSC(N/N=C/c2cccc([N+](=O)[O-])c2)=N1 | 37.6 | 26.6 | 12.6 | –
9 | O=C1CSC(NN=C2CCCCCCC2)=N1 | 31 | – | 18.4 | –
10 | O=C1CSC(N/N=C/c2cccc(Cl)c2)=N1 | 14.3 | 10.8 | 4.31 | –
11 | COc1ccc(/C=N/NC2=NC(=O)CS2)cc1 | 9.17 | 5.78 | 3.16 | –
12 | O=C1CSC(N/N=C/c2ccc(O)cc2)=N1 | 6.93 | 4.71 | 1.67 | –
13 | O=C1CSC(N/N=C/c2ccc(F)cc2)=N1 | 3.89 | 2.18 | 1.58 | –
14 | Cc1cccc(/C=N/NC2=NC(=O)CS2)c1 | 31.8 | 23.5 | 8.19 | –
15 | O=C1CSC(N/N=C/c2cccc(F)c2)=N1 | 21.7 | 13.5 | 7.78 | –
16 | O=C1CSC(NN=C2CCCCC2)=N1 | > 50 | 41 | 32.1 | –

Second part, the compound after the results:

Row | IC50 [1] [µM] | IC50 [2] [µM] | IC50 (MCF7) [µM] | IC50 [3] [µM] | Compound
17 | 27.8 | 19.3 | 11.8 | – | O=C1CSC(N/N=C/c2cccc(O)c2)=N1
18 | 1.78 | 0.56 | 0.18 | – | O=C1CSC(N/N=C/c2cc(Cl)ccc2O)=N1
19 | 4.51 | 1.46 | 1.56 | – | O=C1CSC(N/N=C/c2cc(Cl)cc(Cl)c2O)=N1
20 | 2.43 | 1.72 | 0.97 | – | O=C1CSC(N/N=C/c2ccc(Br)cc2)=N1
21 | – | – | 0.06 | 0.42 | O=C1CSC(N/N=C/c2cc(Br)ccc2O)=N1
22 | 10.3 | 7.46 | 2.42 | – | O=C1CSC(N/N=C/c2cccc(Br)c2)=N1
23 | 3.59 | 0.97 | 0.27 | – | O=C1CSC(N/N=C/c2cc(F)ccc2O)=N1
24 | 3.73 | 1.24 | 0.62 | – | O=C1CSC(N/N=C/c2cc(Br)cc(Br)c2O)=N1
